# Results taken from article PMC7559923, “In Vitro Modeling of Bradykinin-Mediated Angioedema States” (Pharmaceuticals, 2020).
# Ends that are not written are not given here. * marks the point of attachment. Biotin = O=C1N[C@H]2[C@H](CS[C@H]2CCCCC(=O)*)N1
# Key:
# ACE = biological target: ACE; design: method as in 2 sources, one per row (each row's own in cited_ref): ref 35 = [35]; PMID 18201802; doi:10.1016/j.peptides.2007.12.004; 35. Morissette G. Couture J.P. Désormeaux A. Adam A. Marceau F. Lack of direct interaction between enalaprilat and the kinin B 1 receptors Peptides 2008 29 606 612 10.1016/j.peptides.2007.12.004 18201 ||| ref 36 = [36]; PMID 20452384; doi:10.1016/j.peptides.2010.04.027; 36. Koumbadinga G.A. Bawolak M.T. Marceau E. Adam A. Gera L. Marceau F. A ligand-based approach to investigate the expression and function of angiotensin converting enzyme in intact human umbilical ve; details: cited from earlier work
# Description: Primary cultures of human umbilical vein endothelial cells (HUVECs) are a standard model for which significant information is available. These cells express at their surface a high number of ACE molecule, as judged from the saturable binding of [^3 ...
# B1 receptor = details: cited from earlier work
# Description: (§1) (Figure 2). Thus, the EIA signal may be contaminated with the inert metabolite generated by aminopeptidase P, a significant peptidase that inactivates BK [17]. One way out is to couple the EIA quantification with chromatographic separation of kinins, such as HPLC [29].
# B2 receptor = details: cited from earlier work
# Description: as §1
# [1] = test system: polyclonal anti-BK antibodies; test: Cross-reactivity of the BK EIA (Phoenix Pharmaceuticals) with kinin sequences; assay type: binding; details: Figure 2 (reproduced in part from ref 12)
# Description: BK and related peptides are formed locally close to their site of action (autacoids). They are extremely unstable and prone to artefactual formation when blood or tissues are sampled (for instance, following contact of blood with glass). Therefore, measuring kinins in venous blood is not really informative, contrasting with many useful peptide hormone dosages applied in endocrinology. A further challenge in concentration determination is that the BK sequence is embedded in that of precursor kininogens, with necessary separation if an antibody-based detection system is considered. Blais et al. have reviewed these pitfalls and discussed extraction procedures and recovery in the context of the currently applied immunoassays. Professor A. Adam and co-workers developed separate competitive chemiluminescence enzyme immunoassays (EIAs) for BK and des-Arg^9-BK based on digoxygenin-conjugated peptides. Now several commercially available kits are being used, such as that from Phoenix Pharmaceuticals for BK (96-well plate format), and these have the advantage of world-wide reproducibility. The sensitivity of EIAs is excellent. […]
# (Figure 2). […] One way out is to couple the EIA quantification with chromatographic separation of kinins, such as HPLC [29]. […]
# [2] = test system: polyclonal anti-BK antibodies; details: cited from earlier work; for cross-reactivity in the BK EIA as stated by the manufacturer: ref Phoenix Pharmaceuticals
# Description: BK and related peptides are formed locally close to their site of action (autacoids). They are extremely unstable and prone to artefactual formation when blood or tissues are sampled (for instance, following contact of blood with glass). Therefore, measuring kinins in venous blood is not really informative, contrasting with many useful peptide hormone dosages applied in endocrinology. A further challenge in concentration determination is that the BK sequence is embedded in that of precursor kininogens, with necessary separation if an antibody-based detection system is considered. Blais e ... || Figure 2 Cross-reactivity of the BK EIA with selected kinin sequences. […] Reproduce ...
# human B1 receptor = details: cited from earlier work
# Description: The present paper reviews recent literature, contains some original results, and aims to illustrate the role of the analytical biochemistry of BK-related kinins in the understanding of angioedema (AE) mediated by kinins. The kallikrein –kinin system is made of many molecular participants present or secreted in blood plasma or present at the vascular endothelial surface (Figure 1). There are two different precursors of kinins, low and high molecular weight kininogens (LK, HK; abbreviations are defined in Table 1). Those proteins are encoded by alternative splicing of a single gene ...
# [3] = Degradation of BK by intact adherent HUVECs (Phoenix Pharmaceuticals BK EIA)
# Protocol: Samples were incubated at 37 °C under agitation for the indicated time periods before extraction and EIA determination of BK. The number of replicated from different healthy donors is indicated by “n”. […] Reproduced from.
# (§2) ACE activity in serum or blood plasma corresponds, in healthy individuals, to a form of the protein shed from the vascular endothelial cells in an apparently regulated manner. ACE, membrane arginine carboxypeptidase (carboxypeptidase M), aminopeptidase P and other potential kininases are expressed at the surface of vascular endothelial cells. Primary cultures of human umbilical vein endothelial cells (HUVECs) are a standard model for which significant information is available.
# [4] = cited from earlier work
# Protocol: Samples were incubated at 37 °C under agitation for the indicated time periods before extraction and EIA determination of BK. The number of replicated from different healthy donors is indicated by “n”. […] Reproduced from. (B) Catabolism of BK ... || One stored plasma sample that was received in our laboratory was partly clotted and excluded from our previous studies. […] Secondly, the par ...
# [5] = BK 10 ng/mL, adherent HUVECs at 37 °C without serum, radioimmunoassay; cited from earlier work
# Description: as §2, with “available. These cells express at their surface a high number of ACE molecule, as judged from the saturable binding of [^3 ...” for “available.”
# [6] = BK added ex vivo to plasma of healthy subjects who took two daily doses of enalapril maleate; cited from earlier work
compound,measurement,setting,value
"C[C@H](N[C@@H](CCc1ccccc1)C(=O)O)C(=O)N1CCC[C@H]1C(=O)O [[^3H]enalaprilat, enalaprilat]",Kd,ACE; saturable binding to intact HUVECs,0.23 nM
"BK1–5: BK fragment produced by two cycles of ACE activity, more stable than most kinins (RPPGF; Bradykinin; UniProt P01042 381-385, looked up, fragment)",activity on B1 receptors,B1 receptor,inactive
same,activity on B2 receptors,B2 receptor,inactive
"BK1–7: BK fragment produced by ACE (RPPGFSP; Bradykinin; UniProt P01042 381-387, looked up, fragment)",activity on B1 receptors,B1 receptor,inactive
same,activity on B2 receptors,B2 receptor,inactive
D-Arg-BK-Arg-Arg,cross-reactivity in the BK EIA vs. BK,[1],loses much affinity
same,cross-reactivity in the BK EIA vs. BK,[1]; listed as Arg-BK-Arg-Arg,partial reactivity
Lys-des-Arg^9-BK,cross-reactivity in the BK EIA,[2]; Phoenix Pharmaceuticals BK EIA,do not cross react at all
same,affinity for the human form of the B1 receptor,human B1 receptor,subnanomolar affinity
"RPPGFSPFR [BK, bradykinin]",stability in wells without cells (nude plastic),[3],stable
same,half-life at 10 nM,"[3]; human, pH 7.4",12.3 min
same,time in which BK was completely cleared,[4],5 min
same,half-life (first order decay),[4]; human,7.1 min
same,t1/2,[4]; human,0.567 min
same,half-life,[5],about 50 min
same,increase of BK t1/2 relative to the pre-treatment value,[6],~ 5 fold
"biotinyl-BK (Biotin-RPPGFSPFR; UniProt P01042 381-389, looked up) [biotin-labelled BK tracer]",cross-reactivity in the BK EIA as stated by the manufacturer,[2],fully cross-reacts
"des-Arg^9-BK (RPPGFSPF; Bradykinin; UniProt P01042 381-388, looked up, fragment) [BK metabolite produced by arginine carboxypeptidases (kininase I)]",cross-reactivity in the BK EIA as stated by the manufacturer,[2],not
same,affinity for the human form of the B1 receptor,human B1 receptor,very weak affinity
lysyl-bradykinin [Lys-BK],displacement of [3H]enalaprilat binding,ACE; HUVECs,displaced
same,cross-reactivity in the BK EIA as stated by the manufacturer,[2],fully cross-reacts
